Laboratory results as given in US10300044B2, “Polymorphic forms of methyl((1S)-1-(((2S)-2-(5-(4′-(2-((2S)-1-((2S)-2-((methoxycarbonyl)amino)-3-methylbutanoyl)-2-pyrrolidinyl)-1H-imidazol-5-yl)-4-biphenylyl)-1H-imidazol-2-yl)-1-pyrrolidinyl)carbonyl)-2-methylpropyl)carbamate and salts thereof” (Cipla Limited, priority 2014, dated 2019).
Where a name gives a salt, the structure may show the parent alone.

Key:
[1] = Hygroscopicity; type: physicochemical
[2] = N-1 versus N-2 crystalline dihydrochloride salts; cited from earlier work

hygroscopicity [1] | SMILES | thermodynamic stability among polymorphs [2]
substantially non-hygroscopic | COC(=O)N[C@H](C(=O)N1CCC[C@H]1c1ncc(-c2ccc(-c3ccc(-c4cnc([C@@H]5CCCN5C(=O)[C@@H](NC(=O)OC)C(C)C)[nH]4)cc3)cc2)[nH]1)C(C)C [Form A, methyl((1 S)-1-(((2S)-2-(5-(4′-(2-((2S)-1-((2S)-2-((methoxycarbonyl)amino)-3-methylbutanoyl)-2-pyrrolidinyl)-1H-imidazol-5-yl)-4-biphenylyl)-1H-imidazol-2-yl)-1-pyrrolidinyl)carbonyl)-2-methylpropyl)carbamate] | 
 | COC(=O)N[C@H](C(=O)N1CCC[C@H]1c1nc(-c2ccc(-c3ccc(-c4c[nH]c([C@@H]5CCCN5C(=O)[C@@H](NC(=O)OC)C(C)C)n4)cc3)cc2)c[nH]1)C(C)C [Form N-2, methyl((1S)-1-(((2S)-2-(5-(4′-(2-((2S)-1-((2S)-2-((methoxycarbonyl)amino)-3-methylbutanoyl)-2-pyrrolidinyl)-1H-imidazol-5-yl)-4-biphenylyl)-1H-imidazol-2-yl)-1-pyrrolidinyl)carbonyl)-2-methylpropyl) carbamate dihydrochloride] | thermodynamically most stable polymorph
